The record followed here is patent US9725460B2, “Oridonin analogs, compositions, and methods related thereto” (THE BOARD OF REGENTS OF THE UNIVERSITY OF TEXAS SYSTEM, priority 2013, dated 2017).

The structures appear in SMILES notation.

Assay type in all cases: cell-based, human
For one assay, the system named is MCF-7. Put plainly: MTT cancer cell proliferation assay, MCF-7. The following applies: Homo sapiens, MCF7, 48 h, Table 3; pyran-fused diterpenoids; MTT 48 h; mean ± SE of three experiments; read-out: IC50 (μM) MCF-7. The protocol: (§1) In Vitro Determination of Effects of Synthesized Diterpenoids on Cancer Cell Proliferation. Breast cancer cell lines MCF-7, MDA-MB-231, […] and MCF/ADR were seeded in 96-well plates at a density of 1×10^4 cells/well and treated with DMSO and 0.01, 0.1, 1, 5, 10, and 100 μM of individual compound for 48 h, and then 20 μL of 3-(4,5-dimethylthiazol-2-yl)-2,5-diphenyltetrazolium bromide (MTT) (5 mg/mL in PBS) was added to each well and further incubated for another 4 h. Then MTT solution was removed, and 150 μL of DMSO was added to each well. Absorbance of all wells was determined by measuring OD at 550 nm after a 10 min incubation on a 96-well GlowMaxate absorbance reader (Promega, Madison, Wis.). Each individual compound was tested in quadruplicate wells for each concentration.
(§2) The growth inhibitory effects of the newly generated pyran-fused diterpenoids were evaluated in four breast cancer cell lines MCF-7 (ER-positive), MDAMB-231 (ER-negative and triple-negative), MDA-MB-468 (ER-negative and triple-negative) as well as MCF-7/ADR (adriamycin-resistant) using MTT assays as described in the Experimental Section.

The subject of the next assay is MDA-MB-231. Put plainly: MTT cancer cell proliferation assay, MDA-MB-231. The note with it: Homo sapiens, MDA-MB-231, 48 h, Table 3; pyran-fused diterpenoids; MTT 48 h; mean ± SE of three experiments; read-out: IC50 (μM) MDA-MB-231. The protocol:
as §1, §2

The subject of another assay is MDA-MB-468. Put plainly: MTT cancer cell proliferation assay, MDA-MB-468. The note with it: Homo sapiens, MDA-MB-468, 48 h, Table 3; pyran-fused diterpenoids; MTT 48 h; mean ± SE of three experiments. The protocol: as §1
(§3) The growth inhibitory effects of the newly generated pyran-fused diterpenoids were evaluated in four breast cancer cell lines MCF-7 (ER-positive), MDAMB-231 (ER-negative and triple-negative), MDA-MB-468 (ER-negative and triple-negative) as well as MCF-7/ADR (adriamycin-resistant) using MTT assays as described in the Experimental Section. The capability of these new molecules to inhibit the growth of cancer cells was summarized in Table 3 and compared with that of adriamycin and 1 spontaneously.

Another assay has as its system MCF-7/ADR. Put plainly: MTT growth inhibition, drug-resistant MCF-7/ADR. The following applies: Homo sapiens, NCI/ADR-RES, 48 h, Table 3; adriamycin-resistant; MTT 48 h; mean ± SE of three experiments. The protocol:
as §1, §3

What is called IC50 is the concentration at which inhibition is half-maximal. For the molecule `C=C1C(=O)[C@@]23[C@@H]4OC(C)(C)O[C@@]25OC[C@]2(C6=C(CC[C@@H](OCCCCO)O6)CC(C)(C)[C@H]2[C@@H]5O)[C@@H]3CC[C@@H]14` [CYD-8-67-2], the IC50 with MCF-7 was 5.17 ± 2.9 µM; in the assay with MDA-MB-231 it was 5.89 ± 2.04 µM; with MDA-MB-468 it was 5.96 ± 0.29 µM; with MCF-7/ADR, 5.34 ± 1.29 µM.

Consider `C=C1C(=O)[C@@]23[C@@H]4OC(C)(C)OC25OC[C@]2(C6=C(CC[C@H](OCCCC)O6)CC(C)(C)[C@H]2[C@@H]5O)[C@@H]3CC[C@@H]14` [CYD-8-69-1], for which the concentration for half-maximal inhibition (IC50) with MCF-7 is 2.41 ± 1.45 µM; in the assay on MDA-MB-231, 2.23 ± 0.39 µM; with MDA-MB-468, 2.98 ± 0.67 µM; with MCF-7/ADR it was 3.8 ± 1.15 µM.

On to `C=C1C(=O)[C@@]23[C@@H]4OC(C)(C)O[C@@]25OC[C@]2(C6=C(CC[C@H](OCC)O6)CC(C)(C)[C@H]2[C@@H]5O)[C@@H]3CC[C@@H]14` [CYD-8-69-2], for which the IC50 in the assay on MCF-7 was 2.41 ± 1.86 µM; in the assay with MDA-MB-231, 3.73 ± 0.28 µM; in the assay with MDA-MB-468, 5.81 ± 1.92 µM; with MCF-7/ADR it was 6.79 ± 3.46 µM.

With `C=C1C(=O)[C@@]23[C@@H]4OC(C)(C)O[C@@]25OC[C@]2(C6=C(C[C@H]7CCCO[C@H]7O6)CC(C)(C)[C@H]2[C@@H]5O)[C@@H]3CC[C@@H]14` [CYD-8-74-2], the IC50 with MCF-7 is 2.39 ± 0.78 µM; with MDA-MB-231, 2.53 ± 0.77 µM; in the assay on MDA-MB-468 it was 3.33 ± 0.58 µM; in the assay on MCF-7/ADR it was 2.89 ± 0.32 µM.

Take `C=C1C(=O)[C@@]23[C@@H]4OC(C)(C)O[C@@]25OC[C@]2(C6=C(CC[C@@H](SCC)O6)CC(C)(C)[C@H]2[C@@H]5O)[C@@H]3CC[C@@H]14` [CYD-8-84]: the IC50 with MCF-7 came out at 2.3 ± 1.4 µM; in the assay on MDA-MB-231, 2.87 ± 0.54 µM; in the assay on MDA-MB-468 it was 2.83 ± 0.42 µM; in the assay on MCF-7/ADR, 3.82 ± 0.47 µM.

Regarding `C=C1C(=O)[C@@]23[C@@H]4OC(C)(C)O[C@@]25OC[C@]2(C6=C(CC[C@H](OCCCN=[N+]=[N-])O6)CC(C)(C)[C@H]2[C@@H]5O)[C@@H]3CC[C@@H]14` [CYD-8-87], the half-inhibitory concentration (IC50) was found to be 7.79 ± 3.18 µM with MCF-7, 7.57 ± 0.44 µM with MDA-MB-231, 6.63 ± 0.77 µM in the assay with MDA-MB-468 and 8.6 ± 0.7 µM in the assay with MCF-7/ADR.
